According to patent publication US20100152285A1, “Flavononol Renin Inhibitor Compounds and Methods of Use Thereof” (HerbalScience Group LLC, priority 2008, published 2010):

Tested on: monocrotaline induced hypertension in rats
Assay: Monocrotaline-induced hypertension rat model, tail-cuff blood pressure and pulse
Assay type: in vivo, Sprague-Dawley rats
Procedure: Animal Care and Handeling. Sprague-Dawley rats (Charles River Laboratories, Wilmington, Mass.) 60 days old and weighing 140-160 g were utilized. Animals were kept in standard autoclaved rodent cages with ad libitum food (Harlan Teklad Irradiated Rodent Diet) and autoclaved water. The rats were housed on Harlan Tek-chip pelleted paper in static micro isolators maintained at 22° C., 60% relative humidity, and under a 12 h light cycle. The animals were kept at the facility for 5 days to get accustomed to the environment after the arrival from the vendor. All animal care procedures complied with the recommendations of the Guide for Care and Use of Laboratory Animals with respect to restraint, husbandry, surgical procedures, feed and fluid regulation, and veterinary care. Induction of hypertension and the treatment. Rats were injected subcutaneously with monocrotaline (MCT, 60 mg kg^−1) and monitored for 12 days for the development of pulmonary inflammation and initiation of the pulmonary hypertensive response. After the incubation period, Tristenonol aglycone (Cmp. 15 of the present invention) was administrated orally to the animals in three different doses (120, 90, and 60 mg kg^−1 body weights). Blood pressure (BP; Systolic and Diastolic) and heart beats were recorded three times a day 24, 48, and 72 h after administration of compound BP.
Test Articles and Animal Groups. Three doses of Tristenonol aglycone (Cmp 15 of the present invention) were tested. The animals were randomized before and grouped in to 10 animals per group. For positive controls used the commercially available drug Atenol® was used.
Rats were sorted into six groups of ten and treated according to the protocol in Table 1. […] All remaining groups were administered monocrotaline. […] Groups 3, 4 and 5 received Tristenonol aglycone (Cmp 15 of the present invention) at […], 90, and 60 mg respectively per kg body weight 12 days after induction of hypertension with monocrotaline. Positive Control Group 6 was given the commercial drug Atenol® at 120 mg kg^−1.
Systolic blood pressure, diastolic blood pressure and heart beats were recorded in the morning, afternoon and evening three times, 24, 48, and 72 h after Tristenonol aglycone (Cmp 15) and Atenol® administration.
Protocol for the Measurement of the Blood Pressure. A tail-cuff was placed on the tail to occlude the blood flow. Upon deflation a non-invasive blood pressure sensors, placed distal to the occlusion cuff, was utilized to monitor the blood pressure. Volume Pressure Recording. The volume pressure recording sensor utilizes a specially designed differential pressure transducer to non-invasively measure the blood volume in the tail. Volume pressure recording actually measured six blood pressure parameters simultaneously: systolic blood pressure, diastolic blood pressure, mean blood pressure, heart pulse rate, tail blood volume and tail blood flow. […] In addition, volume pressure recording was not dependent on the skin pigmentation of the animal. Dark-skinned animals have no negative effect on volume pressure recording measurements. Special attention was afforded to the length of the occlusion cuff with volume pressure recording in order to derive the most accurate blood pressure readings. Endpoint Measurements. Each animal was sacrificed when the animal reached the predetermined endpoint of being moribund or when the animals remained […]. The animals were observed and if found incapable of eating or drinking or if their body temperature were too low to sustain life, the animals were sacrificed. Treatment efficacy is determined from the reduction in systolic blood pressure, diastolic blood pressure and heart beats of the animal compared to the untreated control group. Toxicity and Necropsy Examination. Animals were weighed daily throughout the experiment. […]

[1] = 120 mg kg^−1 body weight, rats with monocrotaline
[2] = monocrotaline 60 mg kg^−1 subcutaneously

Row | Structure (SMILES) | decrease in Diastolic blood pressure compared to untreated control [1] | reduction in pulse rate compared to untreated controls [1] | reduction of mean Systolic blood pressure compared to untreated animals (120 mg kg^−1 body weight, rats with monocrotaline, 24-72 h) [%] | increase in Diastolic blood pressure in injected rats [2] | increase in Systolic blood pressure in injected rats [2] | increase in pulse rate in injected animals [2]
1 | CC(C)NCC(O)COc1ccc(CC(N)=O)cc1 (stereo not drawn) [Atenol®] | 24-25% | 35-36.38% | 28 | – | – | –
2 | C[C@H]1C(=O)O[C@@H]2CCN3CC=C(COC(=O)[C@](C)(O)[C@]1(C)O)[C@H]23 [Monocrotaline, monocrotaline] | – | – | – | 49-52% | 40-45% | 60-70%
